In brackets after ≈: the same amount, converted by molar mass. Where a name gives a salt, the structure may show the parent alone. Read-outs that look alike come from different tables or passages of the source.
Assays:
[1] = Stability evaluation in aqueous buffer; format: physicochemical; conditions: about 50 μg/mL, about 15% v/v acetonitrile; for half-life: aqueous buffer, 37° C.
Protocol: The stability study of an individual prodrug was conducted with about 50 μg/mL solutions in aqueous buffers of pH 1 (0.1 M HCl), 4 (acetate buffer) and 6.5 (phosphate buffer) at 37° C. for 24 hours. About 15% v/v acetonitrile was used in these pH buffers as a co-solvent to obtain clear solutions of prodrugs. The sample analysis was carried out using a generic reversed phase liquid chromatographic (LC) method with UV detection. The area percent (AP) loss of the prodrug peak was quantified as a function of time. The appearance of parent peak was identified from the chromatographic retention time. The half-life (t1/2, h) of the prodrug was calculated by using a pseudo-first order equation from a AP loss vs time plot.

[2] = Solubility evaluation in aqueous buffer; format: physicochemical; conditions: for solubility: aqueous buffer, 25 °C, thermodynamic from solid
Protocol: The solid powder of an individual prodrug was equilibrated in aqueous buffers of pH 1, 4 and 6.5 at 25° C. for about 24 hours. After equilibration, the excess solid was separated by filtration using 0.45 μm membrane filter and the filtrate was collected in suitable glass vial. The filtrate was diluted appropriately using respective buffers/diluent and analyzed by a reversed phase LC method with UV detection.

[3] = pH 1, pH 1 (0.1 M HCl), read-out: Stability (t1/2, h) at 37° C. pH 1 (converted)
[4] = pH 4, pH 4 (acetate buffer), read-out: Stability (t1/2, h) at 37° C. pH 4 (converted)
[5] = pH 6.5, pH 6.5 (phosphate buffer), read-out: Stability (t1/2, h) at 37° C. pH 6.5 (converted)
[6] = aqueous buffer pH 4, 25° C., about 24 hours equilibration, ditrifluoroacetate
[7] = aqueous buffer pH 6.5, 25° C., about 24 hours equilibration, ditrifluoroacetate
[8] = pH 1, simulated gastric fluid, aqueous buffer pH 1, 25° C., about 24 hours equilibration, read-out: Solubility (mg/mL) at 25° C. pH 1
[9] = pH 4, aqueous buffer, aqueous buffer pH 4, 25° C., about 24 hours equilibration, read-out: Solubility (mg/mL) at 25° C. pH 4
[10] = pH 6.5, aqueous buffer, aqueous buffer pH 6.5, 25° C., about 24 hours equilibration, read-out: Solubility (mg/mL) at 25° C. pH 6.5

Structure (SMILES) | half-life [1, 3] [h] | half-life [1, 4] [h] | half-life [1, 5] [h] | Solubility (mg/mL) at 25° C. pH 4 [2, 6] [mg/mL] | Solubility (mg/mL) at 25° C. pH 6.5 [2, 7] [mg/mL] | solubility [2, 8] [mg/mL] | Stability (t1/2, h) at 37° C. pH 1 ([1]; pH 1 (0.1 M HCl)) [h] | Stability (t1/2, h) at 37° C. pH 4 ([1]; pH 4 (acetate buffer), ditrifluoroacetate) [h] | Stability (t1/2, h) at 37° C. pH 6.5 ([1]; pH 6.5 (phosphate buffer), ditrifluoroacetate) [h] | Solubility (mg/mL) at 25° C. pH 1 ([2]; aqueous buffer pH 1, 25° C., about 24 hours equilibration, ditrifluoroacetate) [mg/mL] | solubility [2, 9] [mg/mL] | solubility [2, 10] [mg/mL] | pH dependence of aqueous solubility ([2]; pH of 1 versus pH of 4 or pH of 6)
Cc1c(-c2c(C(C)C)c3cc(C4CCN(CC(N)=O)CC4)ccc3n2C(=O)OC(C)OC(=O)C2(N)CC2)cn2ncnc2c1C (single isomer, unassigned) [Example 6, 1-((1-Aminocyclopropane-1-carbonyl)oxy)ethyl 5-(1-(2-amino-2-oxoethyl)piperidin-4-yl)-2-(7,8-dimethyl-[1,2,4]triazolo[1,5-a]pyridin-6-yl)-3-isopropyl-1H-indole-1-carboxylate ditrifluoroacetate] | > 500 | 415 | 108 | 0.52 | >1.22 | > 1.32 |  |  |  |  |  |  | 
Cc1c(-c2c(C(C)C)c3cc(C4CCN(CC(N)=O)CC4)ccc3n2C(=O)OC(C)OC(=O)C2(N)CC2)cn2ncnc2c1C (single isomer, unassigned) [Example 7, 1-((1-Aminocyclopropane-1-carbonyl)oxy)ethyl 5-(1-(2-amino-2-oxoethyl)piperidin-4-yl)-2-(7,8-dimethyl-[1,2,4]triazolo[1,5-a]pyridin-6-yl)-3-isopropyl-1H-indole-1-carboxylate ditrifluoroacetate] |  |  |  | >1.21 | 0.34 |  | >500 | >500 | 193 | >1.49 |  |  | 
Cc1c(-c2[nH]c3ccc(C4CC[N+](COC(=O)N(C)CCOP(=O)(O)O)(CC(N)=O)CC4)cc3c2C(C)C)cn2ncnc2c1C (single isomer, unassigned) [Example 20, 1-(2-Amino-2-oxoethyl)-4-(2-(7,8-dimethyl-[1,2,4]triazolo[1,5-a]pyridin-6-yl)-3-isopropyl-1H-indol-5-yl)-1-(((methyl(2-(phosphonooxy)ethyl)carbamoyl)oxy)methyl) piperidin-1-ium trifluoroacetate] | > 500 | > 500 | > 500 |  |  | > 1.16 |  |  |  |  | > 1.87 | > 2.08 | 
Cc1c(-c2[nH]c3ccc(C4CCN(CC(N)=O)CC4)cc3c2C(C)C)cn2nc[n+](COC(=O)N(C)CCOP(=O)(O)O)c2c1C (single isomer, unassigned) [Example 21, 6-(5-(1-(2-amino-2-oxoethyl)piperidin-4-yl)-3-isopropyl-1H-indol-2-yl)-7,8-dimethyl-1-(((methyl(2-(phosphonooxy)ethyl)carbamoyl)oxy)methyl)-[1,2,4]triazolo[1,5-a]pyridin-1-ium trifluoroacetate] | > 500 | > 500 | > 500 |  |  | > 1.75 |  |  |  |  | 0.25 | 0.55 | 
Cc1c(-c2[nH]c3ccc(C4CCN(CC(N)=O)CC4)cc3c2C(C)C)cn2ncnc2c1C [Compound A, 2-(4-(2-(7,8-dimethyl-[1,2,4]triazolo[1,5-a]pyridin-6-yl)-3-isopropyl-1H-indol-5-yl)piperidin-1-yl)acetamide, reference compound] |  |  |  |  |  | 1.56 (≈ 3510 µM) |  |  |  |  | 0.05 (≈ 112 µM) | < 0.01 | higher solubility at pH of 1 than at pH of 4 or pH of 6
Cc1c(-c2c(C(C)C)c3cc(C4CCN(CC(N)=O)CC4)ccc3n2C(=O)OC[C@@H]2CCCCN2)cn2ncnc2c1C [Example 1, (S)-Piperidin-2-ylmethyl 5-(1-(2-amino-2-oxoethyl)piperidin-4-yl)-2-(7,8-dimethyl-[1,2,4]triazolo[1,5-a]pyridin-6-yl)-3-isopropyl-1H-indole-1-carboxylate] | > 500 | > 500 | 218 |  |  | > 1.74 |  |  |  |  | > 1.28 | > 1.34 | 
Cc1c(-c2c(C(C)C)c3cc(C4CCN(CC(N)=O)CC4)ccc3n2C(=O)OC[C@@H]2CCCCN2C(=O)OCOP(=O)(O)O)cn2ncnc2c1C [Example 2, (S)-(1-(((Phosphonooxy)methoxy)carbonyl)piperidin-2-yl)methyl 5-(1-(2-amino-2-oxoethyl)piperidin-4-yl)-2-(7,8-dimethyl-[1,2,4]triazolo[1,5-a]pyridin-6-yl)-3-isopropyl-1H-indole-1-carboxylate] | 248 | 283 | 267 |  |  | > 1.17 |  |  |  |  | 0.24 (≈ 324 µM) | 0.43 (≈ 581 µM) | 
Cc1c(-c2c(C(C)C)c3cc(C4CCN(CC(N)=O)CC4)ccc3n2C(=O)OC[C@@H]2CCCN2)cn2ncnc2c1C [Example 3, (S)-Pyrrolidin-2-ylmethyl 5-(1-(2-amino-2-oxoethyl)piperidin-4-yl)-2-(7,8-dimethyl-[1,2,4]triazolo[1,5-a]pyridin-6-yl)-3-isopropyl-1H-indole-1-carboxylate] | > 500 | > 500 | 99 |  |  | > 2.43 |  |  |  |  | > 2.68 | > 2.44 | 
Cc1c(-c2c(C(C)C)c3cc(C4CCN(CC(N)=O)CC4)ccc3n2C(=O)OC[C@@H]2CCCN2C(=O)OCOP(=O)(O)O)cn2ncnc2c1C [Example 4, (S)-(1-(((Phosphonooxy)methoxy)carbonyl)pyrrolidin-2-yl)methyl 5-(1-(2-amino-2-oxoethyl)piperidin-4-yl)-2-(7,8-dimethyl-[1,2,4]triazolo[1,5-a]pyridin-6-yl)-3-isopropyl-1H-indole-1-carboxylate] | 231 | 257 | 231 |  |  | > 1.64 |  |  |  |  | 0.91 (≈ 1250 µM) | 0.66 (≈ 909 µM) | 
CNCC(=O)n1c(-c2cn3ncnc3c(C)c2C)c(C(C)C)c2cc(C3CCN(CC(N)=O)CC3)ccc21 [Example 5, 2-(4-(2-(7,8-Dimethyl-[1,2,4]triazolo[1,5-a]pyridin-6-yl)-3-isopropyl-1-(methylglycyl)-1H-indol-5-yl)piperidin-1-yl)acetamide ditrifluoroacetate] | > 500 | 233 | 4.5 |  |  | > 2.84 |  |  |  |  | > 2.15 | 1.19 (≈ 2310 µM) | 
CNCC(=O)OCc1cccnc1N(C)C(=O)OC[N+]1(CC(N)=O)CCC(c2ccc3[nH]c(-c4cn5ncnc5c(C)c4C)c(C(C)C)c3c2)CC1 (stereo not shown) [Example 12, 1-(2-Amino-2-oxoethyl)-4-(2-(7,8-dimethyl-[1,2,4]triazolo[1,5-a]pyridin-6-yl)-3-isopropyl-1H-indol-5-yl)-1-(((methyl(3-(((methylglycyl)oxy)methyl)pyridin-2-yl)carbamoyl)oxy)methyl)piperidin-1-ium ditrifluoroacetate] | > 500 | 99 | 1.6 |  |  |  |  |  |  |  |  |  | 
CNCC(=O)OCc1cccnc1N(C)C(=O)OC[n+]1cnn2cc(-c3[nH]c4ccc(C5CCN(CC(N)=O)CC5)cc4c3C(C)C)c(C)c(C)c21 [Example 13, 6-(5-(1-(2-Amino-2-oxoethyl)piperidin-4-yl)-3-isopropyl-1H-indol-2-yl)-7,8-dimethyl-1-(((methyl(3-(((methylglycyl)oxy)methyl)pyridin-2-yl)carbamoyl)oxy)methyl)-[1,2,4]triazolo[1,5-a]pyridin-1-ium tritrifluoroacetate] | 459 | 99 | 2.5 |  |  |  |  |  |  |  |  |  | 
Cc1c(-c2c(C(C)C)c3cc(C4CCN(CC(N)=O)CC4)ccc3n2C(=O)OCOP(=O)(O)O)cn2ncnc2c1C [Example 16, (Phosphonooxy)methyl 5-(1-(2-amino-2-oxoethyl)piperidin-4-yl)-2-(7,8-dimethyl-[1,2,4]triazolo[1,5-a]pyridin-6-yl)-3-isopropyl-1H-indole-1-carboxylate] | 80 | 7.5 | 0.1 |  |  |  |  |  |  |  |  |  | 
Cc1c(-c2c(C(C)C)c3cc(C4CCN(CC(N)=O)CC4)ccc3n2P(=O)(O)O)cn2ncnc2c1C [Example 18, (5-(1-(2-Amino-2-oxoethyl)piperidin-4-yl)-2-(7,8-dimethyl-[1,2,4]triazolo[1,5-a]pyridin-6-yl)-3-isopropyl-1H-indol-1-yl)phosphonate] | 6.4 | 2.9 | 6.3 |  |  |  |  |  |  |  |  |  | 

From patent US20220213099A1, “PRODRUG COMPOUNDS” (BRISTOL-MYERS SQUIBB COMPANY, priority 2019, published 2022)
